Experimental findings from patent publication US11168073B2, “3,3-difluoroallylamines or salts thereof and pharmaceutical compositions comprising the same” (YUHAN CORPORATION, priority 2018, dated 2021) are described below.

Common to all, as to type: biochemical
One experiment addresses T1, recombinant human VAP-1 (Homo sapiens, UniProt Q16853).
T1 construct: purchased R&D systems
T1 sequence (Q16853 1-763): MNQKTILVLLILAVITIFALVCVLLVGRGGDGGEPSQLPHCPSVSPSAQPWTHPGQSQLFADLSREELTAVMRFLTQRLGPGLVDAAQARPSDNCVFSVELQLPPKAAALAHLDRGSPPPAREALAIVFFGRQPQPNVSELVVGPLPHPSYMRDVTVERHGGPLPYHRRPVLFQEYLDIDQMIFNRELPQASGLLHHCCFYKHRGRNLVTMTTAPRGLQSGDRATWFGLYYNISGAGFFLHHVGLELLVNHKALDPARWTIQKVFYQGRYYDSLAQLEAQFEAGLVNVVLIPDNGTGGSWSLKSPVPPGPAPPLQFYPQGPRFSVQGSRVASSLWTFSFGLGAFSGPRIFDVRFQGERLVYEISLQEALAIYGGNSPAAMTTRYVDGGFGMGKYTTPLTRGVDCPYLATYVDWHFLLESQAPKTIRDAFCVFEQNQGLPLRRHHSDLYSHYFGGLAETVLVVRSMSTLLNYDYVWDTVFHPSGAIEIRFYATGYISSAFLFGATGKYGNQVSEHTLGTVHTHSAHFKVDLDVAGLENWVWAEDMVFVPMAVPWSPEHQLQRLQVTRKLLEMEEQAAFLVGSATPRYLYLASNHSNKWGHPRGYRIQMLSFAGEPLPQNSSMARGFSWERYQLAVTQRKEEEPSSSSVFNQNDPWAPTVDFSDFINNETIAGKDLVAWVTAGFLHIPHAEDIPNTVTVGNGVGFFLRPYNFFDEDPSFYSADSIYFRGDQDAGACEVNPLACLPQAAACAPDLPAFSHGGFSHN
The experiment is described as follows: Activity evaluation on recombinant human VAP-1 (Amplex Red/HRP-coupled hydrogen peroxide assay, benzylamine substrate). The settings on record: read-out: Inhibitory Activity (IC50, nM) human VAP-1. The gist of the method:
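Recombinant human VAP-1 in 50 mM sodium phosphate pH 7.4 preincubated 30 min at 37 °C with compound (8-point 1:3 series, <1% DMSO), then 1 mM benzylamine, 200 uM Amplex Red, 1 U/mL HRP added. H2O2-derived resorufin fluorescence (ex 544/em 590) followed 1–2 h; IC50 from four-parameter fit of rate inhibition.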

The target in experiment [1] is T2, recombinant human MAO-A (monoamine oxidase-A) (Homo sapiens, UniProt P21397).
T2 construct: purchased Sigma-Aldrich
T2 sequence (P21397 1-527): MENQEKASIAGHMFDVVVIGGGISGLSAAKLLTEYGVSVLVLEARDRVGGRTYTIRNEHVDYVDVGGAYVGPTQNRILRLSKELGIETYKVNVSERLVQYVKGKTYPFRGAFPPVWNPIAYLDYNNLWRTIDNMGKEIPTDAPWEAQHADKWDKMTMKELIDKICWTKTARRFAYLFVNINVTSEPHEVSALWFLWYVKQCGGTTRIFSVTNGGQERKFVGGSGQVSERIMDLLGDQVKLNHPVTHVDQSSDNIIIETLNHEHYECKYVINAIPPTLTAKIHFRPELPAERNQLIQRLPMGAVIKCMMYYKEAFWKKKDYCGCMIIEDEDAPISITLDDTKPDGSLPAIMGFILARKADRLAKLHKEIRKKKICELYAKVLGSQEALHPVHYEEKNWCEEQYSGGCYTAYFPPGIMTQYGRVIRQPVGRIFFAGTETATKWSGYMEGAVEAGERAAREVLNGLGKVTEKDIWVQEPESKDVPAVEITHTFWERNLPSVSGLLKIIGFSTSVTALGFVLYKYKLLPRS
The experiment is described as follows: Activity evaluation on recombinant human MAO-A (Amplex Red/HRP-coupled assay, 0.5 mM tyramine substrate). The note with it: read-out: Inhibitory Activity (IC50, nM) MAO-A. The essentials:
(§1)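 Compounds preincubated 30 min at 37 °C with enzyme in 50 mM sodium phosphate pH 7.4 (final DMSO <1%, 8-point 1:3 dilutions); reaction started with 200 uM Amplex Red, 1 U/mL HRP and substrate (MAO-A 0.5 mM tyramine, MAO-B 1 mM benzylamine, DAO 1 mM putrescine). Resorufin fluorescence (ex 544/em 590 nm) followed over 1-2 h; IC50 from four-parameter logistic fit.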

Experiment [2] deals with T3, recombinant human MAO-B (monoamine oxidase-B) (Homo sapiens, UniProt P27338).
T3 construct: purchased Sigma-Aldrich
T3 sequence (P27338 1-520): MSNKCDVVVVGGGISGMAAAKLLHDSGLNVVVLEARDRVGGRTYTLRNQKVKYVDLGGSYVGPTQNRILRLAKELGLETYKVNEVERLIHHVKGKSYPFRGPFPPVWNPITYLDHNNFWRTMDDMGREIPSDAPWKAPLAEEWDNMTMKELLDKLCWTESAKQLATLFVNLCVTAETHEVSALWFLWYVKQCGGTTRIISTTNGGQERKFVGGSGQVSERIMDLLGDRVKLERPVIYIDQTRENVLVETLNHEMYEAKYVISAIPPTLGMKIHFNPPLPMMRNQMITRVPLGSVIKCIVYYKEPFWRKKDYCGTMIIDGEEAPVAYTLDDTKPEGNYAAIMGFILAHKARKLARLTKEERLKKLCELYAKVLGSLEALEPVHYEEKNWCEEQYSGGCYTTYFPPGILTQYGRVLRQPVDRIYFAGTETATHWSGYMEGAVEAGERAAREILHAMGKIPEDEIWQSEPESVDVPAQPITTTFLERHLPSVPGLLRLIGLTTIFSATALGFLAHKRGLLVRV
Kind of experiment: Activity evaluation on recombinant human MAO-B (Amplex Red/HRP-coupled assay, 1 mM benzylamine substrate). The settings on record: read-out: Inhibitory Activity (IC50, nM) MAO-B. The gist of the method: as §1

Experiment [3] addresses T4, recombinant human DAO (diamine oxidase) (Homo sapiens, UniProt P19801).
T4 construct: purchased R&D systems
T4 sequence (P19801 20-751): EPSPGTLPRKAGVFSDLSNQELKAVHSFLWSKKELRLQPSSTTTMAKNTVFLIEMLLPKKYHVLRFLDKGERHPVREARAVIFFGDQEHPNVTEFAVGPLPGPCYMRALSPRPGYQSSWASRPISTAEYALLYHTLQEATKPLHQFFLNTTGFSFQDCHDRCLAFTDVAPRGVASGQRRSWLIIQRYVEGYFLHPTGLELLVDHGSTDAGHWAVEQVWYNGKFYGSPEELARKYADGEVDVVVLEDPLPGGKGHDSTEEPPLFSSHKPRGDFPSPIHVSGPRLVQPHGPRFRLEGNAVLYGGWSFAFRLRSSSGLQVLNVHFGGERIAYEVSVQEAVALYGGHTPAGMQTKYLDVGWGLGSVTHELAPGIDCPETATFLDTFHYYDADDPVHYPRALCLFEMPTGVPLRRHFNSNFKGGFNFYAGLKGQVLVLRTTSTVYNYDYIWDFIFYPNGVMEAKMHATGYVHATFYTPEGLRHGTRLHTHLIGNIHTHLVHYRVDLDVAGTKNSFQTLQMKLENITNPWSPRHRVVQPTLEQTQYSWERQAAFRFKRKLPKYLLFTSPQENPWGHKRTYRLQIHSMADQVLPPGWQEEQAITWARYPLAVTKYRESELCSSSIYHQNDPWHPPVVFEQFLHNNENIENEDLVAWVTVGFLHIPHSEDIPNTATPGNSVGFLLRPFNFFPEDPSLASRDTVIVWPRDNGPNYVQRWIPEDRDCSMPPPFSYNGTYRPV
The experiment is described as follows: Activity evaluation on recombinant human DAO (Amplex Red/HRP-coupled assay, 1 mM putrescine substrate). The settings on record: read-out: Inhibitory Activity (IC50, nM) DAO. The essentials:
as §1

Where [4] appears, read: recombinant human VAP-1, 30 min preincubation at 37° C., 1 mM benzylamine.
Where [5] appears, read: recombinant human VAP-1, benzylamine substrate.

Where a name gives a salt, the structure may show the parent alone. Read-outs that look alike come from different tables or passages of the source.

`NCC(Cn1ncn(-c2cccc(-c3ccc(N4CCNCC4)cc3)n2)c1=O)=C(F)F` [Example 47, 2-[2-(aminomethyl)-3,3-difluoro-allyl]-4-[6-(4-piperazin-1-ylphenyl)-2-pyridyl]-1,2,4-triazol-3-one Ditrifluoroacetate]: the IC50 on recombinant human VAP-1 (setting [4]) was 3.5 nM; in experiment [1] (0.5 mM tyramine) it was greater than 100000 nM; in experiment [2] (1 mM benzylamine), greater than 100000 nM; in experiment [3] (1 mM putrescine), 1900 nM.

As to `CCn1cc(-c2cccc(-n3cnn(CC(CN)=C(F)F)c3=O)c2C)cn1` [Example 260, 2-[2-(aminomethyl)-3,3-difluoro-allyl]-4-[3-(1-ethylpyrazol-4-yl)-2-methyl-phenyl]-1,2,4-triazol-3-one Trifluoroacetate], the IC50 at recombinant human VAP-1 (setting [5]) is 3.7 nM; in experiment [1] (0.5 mM tyramine substrate), greater than 100000 nM; in experiment [2] (1 mM benzylamine substrate), greater than 100000 nM; in experiment [3] (1 mM putrescine substrate), greater than 100000 nM.

Consider `CCn1cc(-c2ccc(-n3cnn(CC(CN)=C(F)F)c3=O)c(F)c2)cn1` [Example 37, 2-[2-(aminomethyl)-3,3-difluoro-allyl]-4-[4-(1-ethylpyrazol-4-yl)-2-fluoro-phenyl]-1,2,4-triazol-3-one Trifluoroacetate], for which the IC50 on recombinant human VAP-1 (setting [4]) is 0.5 nM; in experiment [1] (0.5 mM tyramine), greater than 100000 nM; in experiment [2] (1 mM benzylamine), 880 nM; in experiment [3] (1 mM putrescine), 860 nM.

As to `CN1C(=O)CCc2cc(-c3ccc4sc(Cn5cnn(CC(CN)=C(F)F)c5=O)cc4c3)ccc21` [Example 211, 6-[2-[[1-[2-(aminomethyl)-3,3-difluoro-allyl]-5-oxo-1,2,4-triazol-4-yl]methyl]benzothiophen-5-yl]-1-methyl-3,4-dihydroquinolin-2-one Trifluoroacetate], the half-maximal inhibitory concentration (IC50) is 1.1 nM on recombinant human VAP-1 (setting [5]), 38900 nM in experiment [1] (0.5 mM tyramine substrate), 42700 nM in experiment [2] (1 mM benzylamine substrate) and 1860 nM in experiment [3] (1 mM putrescine substrate).

As to `CCn1cc(-c2ccccc2Cn2cnn(CC(CN)=C(F)F)c2=O)ccc1=O` [Example 285, 5-[2-[[1-[2-(aminomethyl)-3,3-difluoro-allyl]-5-oxo-1,2,4-triazol-4-yl]methyl]phenyl]-1-ethyl-pyridin-2-one Trifluoroacetate], the IC50 at recombinant human VAP-1 (setting [5]) is greater than 100 nM; in experiment [1] (0.5 mM tyramine substrate), greater than 100000 nM; in experiment [2] (1 mM benzylamine substrate), greater than 100000 nM; in experiment [3] (1 mM putrescine substrate), greater than 100000 nM.

As to `NCC(Cn1ncn(Cc2ccc(-c3cn[nH]c3)s2)c1=O)=C(F)F` [Example 292, 2-[2-(aminomethyl)-3,3-difluoro-allyl]-4-[[5-(1H-pyrazol-4-yl)-2-thienyl]methyl]-1,2,4-triazol-3-one Trifluoroacetate], the IC50 on recombinant human VAP-1 (setting [5]) was 2.7 nM; in experiment [1] (0.5 mM tyramine substrate), 86200 nM; in experiment [2] (1 mM benzylamine substrate), greater than 100000 nM; in experiment [3] (1 mM putrescine substrate), greater than 100000 nM.

Take `NCC(Cn1ncn(-c2cccc(-c3ccc(C(F)(F)F)nc3)c2)c1=O)=C(F)F` [Example 19, 2-[2-(aminomethyl)-3,3-difluoro-allyl]-4-[3-[6-(trifluoromethyl)-3-pyridyl]phenyl]-1,2,4-triazol-3-one Trifluoroacetate]: the IC50 on recombinant human VAP-1 (setting [4]) was 5.3 nM; in experiment [1] (0.5 mM tyramine), greater than 100000 nM; in experiment [2] (1 mM benzylamine), greater than 10000 nM; in experiment [3] (1 mM putrescine), 240 nM.

For `Cc1cc(-c2ccc3c(c2)OCO3)cnc1-n1cnn(CC(CN)=C(F)F)c1=O` [Example 72, 2-[2-(aminomethyl)-3,3-difluoro-allyl]-4-[5-(1,3-benzodioxol-5-yl)-3-methyl-2-pyridyl]-1,2,4-triazol-3-one Trifluoroacetate], the IC50 is 0.5 nM at recombinant human VAP-1 (setting [4]), greater than 100000 nM in experiment [1] (0.5 mM tyramine), 1500 nM in experiment [2] (1 mM benzylamine) and 57000 nM in experiment [3] (1 mM putrescine).

In the case of `NCC(Cn1ncn(Cc2ccc(C#Cc3cnc4c(c3)NC(=O)CO4)s2)c1=O)=C(F)F` [Example 169, 7-[2-[5-[[1-[2-(aminomethyl)-3,3-difluoro-allyl]-5-oxo-1,2,4-triazol-4-yl]methyl]-2-thienyl]ethynyl]-1H-pyrido[2,3-b][1,4]oxazin-2-one Trifluoroacetate], the IC50 at recombinant human VAP-1 (setting [4]) is 0.2 nM; in experiment [1] (0.5 mM tyramine) it was greater than 100000 nM; in experiment [2] (1 mM benzylamine), greater than 100000 nM; in experiment [3] (1 mM putrescine) it was greater than 100000 nM.

For `NCC(Cn1ncn(Cc2cccc(-c3ccc4c(c3)OCO4)c2)c1=O)=C(F)F` [Example 274, 2-[2-(aminomethyl)-3,3-difluoro-allyl]-4-[[3-(1,3-benzodioxol-5-yl)phenyl]methyl]-1,2,4-triazol-3-one Trifluoroacetate], the IC50 on recombinant human VAP-1 (setting [5]) is 3.1 nM; in experiment [1] (0.5 mM tyramine substrate), greater than 100000 nM; in experiment [2] (1 mM benzylamine substrate), 125 nM; in experiment [3] (1 mM putrescine substrate), 54100 nM.

With `CCn1cc(-c2ccnc(-n3cnn(CC(CN)=C(F)F)c3=O)c2)cn1` [Example 60, 2-[2-(aminomethyl)-3,3-difluoro-allyl]-4-[4-(1-ethylpyrazol-4-yl)-2-pyridyl]-1,2,4-triazol-3-one Trifluoroacetate], the half-maximal inhibitory concentration (IC50) on recombinant human VAP-1 (setting [4]) was 1.3 nM; in experiment [1] (0.5 mM tyramine), greater than 100000 nM; in experiment [2] (1 mM benzylamine), greater than 100000 nM; in experiment [3] (1 mM putrescine), 810 nM.
